Experimental findings from patent publication US8512958B2, “Methods of identifying agents that modulate mitochondrial function” (The J. David Gladstone Institutes, priority 2005, dated 2013) are described below.

The subject of experiment [1] is rat primary cortical neurons. Put plainly: Dendritic spine density (EGFP-β-actin, confocal microscopy) in primary cortical neurons. In kind it is cell-based. The protocol: (§1) Cortices or hippocampi from neonatal rat pups were dissected and treated with papain (10 units ml^−1, 30 min; Worthington Biochemical, Lakewood, N.J.) and the with trypsin inhibitor (10 mg ml^−1, 15 min). Dissociated neurons were plated on 12-mm glass coverslips (Fisher Scientific, Hampton, N.H.) (8×10^5 cells per cm^2) coated with poly-L-lysine. After 2 h, cells were transferred into Neurobasal medium supplemented with B27, 1 mM L-glutamine, and 100 μg/ml penicillin/streptomycin (Invitrogen). Neurons were routinely transfected after 10 days in culture and used for experiments 5-7 days after transfection. Cells were maintained in a humidified incubator with 5% CO2 at 37° C.
Neuronal activation and inhibition.
(§2) Confocal Microscopy. Cultured primary neurons treated with various forms of apoE were fixed for 20 min in ice-cold 4% paraformaldehyde in PBS and mounted with Vectashield (Vector Laboratories Burlingame, Calif.). Digital images of EGFP and dsRed fluorescence in primary neurons were collected on a laser-scanning confocal microscope with a Bio-Rad Radiance 2000 scanhead (Bio-Rad, Hercules, Calif.) mounted on a BX60 microscope (Olympus, Melville, N.Y.) with a 60× oil objective.
To assess the effect of exogenous apoE on dendritic spine density, rat primary cortical and hippocampal neurons, which had been cultured for 14-17 days in vitro, were incubated with different forms of apoE (7.5 μg/ml) for 24 h. Four to six days before the experiment, the cells were transfected with EGFP-tagged β-actin (EGFP-β-actin), a cytoskeletal protein that is abundant in dendritic spines. […] Other measures of neuronal complexity (e.g., dendritic field and length of dendritic extensions) were not affected by any form of apoE. […] FIGS. 12A and 12B. […] (a) Confocal micrographs of synaptic EGFP-β-actin fluorescence in dendrites of rat primary cortical and hippocampal neurons (16 days in vitro) incubated for 24 h with or without (control) various forms of apoE (7.5 μg/ml). Scale bar=5 μm. (b) Number of spines per μm of dendritic extension. […]

For experiment [2], the system named is rat primary hippocampal neurons. Put plainly: Dendritic spine density (EGFP-β-actin, confocal microscopy) in primary hippocampal neurons. In kind it is cell-based. Conditions: apoE 7.5 μg/ml, 24 h. Here is the method: as §1, §2
To assess the effect of exogenous apoE on dendritic spine density, rat primary cortical and hippocampal neurons, which had been cultured for 14-17 days in vitro, were incubated with different forms of apoE (7.5 μg/ml) for 24 h. […]

Experiment [3] relates to dendrites of primary cortical neurons. Put plainly: Number, size and occupancy of mitochondria in dendrites of primary cortical neurons. Format: cell-based, rat. The note with it: primary neurons treated with apoE.
In experiment [4] the test system is differentiated PC12 cells. The experiment in a line: Time-lapse recording of mitochondrial motility and morphology in neurites of differentiated PC12 cells (exogenous agents). The note with it: for mitochondrial motility, increase: nimodipine 5 μM together with AP5 50 μM, with or without apoE forms.
The next experiment relates to Neuro-2a cells. Put plainly: MTT cell survival assay of Neuro-2a cells transiently transfected with apoE4 cDNA constructs. In kind it is cell-based, mouse. The note with it: expressed in Neuro-2a cells, MTT assay 48 h after transfection. The protocol:
Cell Culture and Transfection. […] ApoE4 expression levels were determined by anti-apoE western blotting of cell lysates and media. […] Thus, the results are not due to overexpression.
Cell Survival. […] Cell survival was estimated with an MTT colorimetric assay (52) 48 h after transfection.
For orientation: Tetrazolium assays rely on reduction of a dye to a coloured formazan, in cell work by metabolically active cells.

Where [5] appears, read: cortical neurons, apoE 7.5 μg/ml, 24 h.
Setting [6] is: repetitive depolarization with KCl 90 mM, 4×3 min.

“Also recorded” adds a separate entry of the source.

On to “apoE4: Human apolipoprotein E4 isoform, 299 amino acids (SEQ ID NO:1); recombinant or expressed”, for which, in experiment [1] (setting [5]), the “density of dendritic spines, decrease compared with controls” value turned out to be 13±5% and the “density of dendritic spines, reduction compared with apoE3” value was 27±5%. Further, in experiment [1] (primary cortical neurons, apoE 7.5 μg/ml 24 h, repetitive KCl depolarization), the “spinal density in response to neuronal activation, reduced as compared to controls” value turned out to be 48±11%. Further, in experiment [2], the “density of dendritic spines, decrease compared with controls” value was found to be 19±5% and the “density of dendritic spines, reduction compared with apoE3” value was determined as 28±4%. The “number of mitochondria at dendritic spines compared with apoE3-treated cells or controls” value in experiment [3] is recorded as “many fewer”. In addition, in experiment [4] (apoE 7.5 μg/ml 24 h, then repetitive depolarizations with KCl), the “extent of the mitochondrial motility response to neuronal activation, reduced to” value was 30%. In experiment [4] (exogenous apoE 7.5 μg/ml, 24 h), the average mitochondrial length entry is “significantly reduced” and the “retrograde velocity / retrograde direction motility” value was “unaffected”.
For the compound “L279Q: full-length WT apoE4 with single mutation L279Q”, the neurotoxicity result with Neuro-2a cells is “as neurotoxic as apoE4(1-272)”.
For the compound `[Cl-].[K+]` [KCl], in experiment [4] (setting [6]), the “average moving velocity (moving distance/15 min) in the anterograde direction” value is given as “drastically reduced”, the “mitochondrial moving velocity (moving distance/time moving)” value was “unaltered; also recorded: did not affect”, the “net moving distance in the anterograde direction” value is given as “drastically reduced” and the “retrograde motility (toward the soma)” value is on record as “No significant changes”. Moreover, in experiment [4] (repetitive depolarizations with KCl (4×, 90 mM)), the “mitochondrial index, reduced” value stood at 22.5%.
Turning to `NC1=N[C@H](O)[C@H]2[C@H]3O[C@]4(O)O[C@@H]([C@@H](O)[C@@]2(N1)[C@@H]4O)[C@]3(O)CO` [TTX, tetrodotoxin], in experiment [4], the mitochondrial dynamics entry is “increased” and the mitochondrial index result is reported as “without affecting; also recorded: not affected”.
As to `COCCOC(=O)C1=C(C)NC(C)=C(C(=O)OC(C)C)C1c1cccc([N+](=O)[O-])c1` (centres unmarked) [nimodipine], the “mitochondrial motility, increase” value in experiment [4] (24 h) was “about 30%”.
Consider “Q284A: full-length WT apoE4 with single mutation Q284A”, for which the neurotoxicity entry in the experiment on Neuro-2a cells is “as neurotoxic as apoE4(1-272)”.
`NC(CCCP(=O)(O)O)C(=O)O` (centres unmarked) [AP5, 2-amino-5-phosphonovalerate]: in experiment [4] (24 h), the “mitochondrial motility, increase” value is “about 30%”.
